System: 556581-035-R-J1-PDC complex spheroid viability
Test: Anticancer human tumor 556581-035-R-J1-PDC patient-derived ovarian carcinoma cell line growth inhibition
Settings: for IC50: curve of first compound; for viability, T/C: stronger effect = lower value
Excerpt: Multicellular complex tumor spheroid response to LSD1 Inhibitor Iadademstat in combination with a variety of drugs and investigational agents in selected tumor cell lines
The current study was undertaken to assess response to LSD1 inhibitors in combination with standard-of-care drugs and investigational agents in solid tumor complex spheroid models as well as in the K-562 leukemia. Complex spheroids include a stromal component modeled by human endothelial cells (HUVEC) and fibroblasts modeled by human mesenchymal stem cells (MSCs). The concentration ranges selected for each drug and investigational agent were based upon clinically achievable concentrations if the clinical Cmax of the agent was known.
Compounds. The drugs and investigational agents used in this study are listed on Table 1. All of the agents used, including staurosporine (NSC755774) and gemcitabine (NSC613327), were obtained from the Developmental Therapeutics Program, NCI. FDA-approved anticancer drugs are available from the NCI at http://dtp.nci.nih.gov/branches/dscb/oncology_drugset_explanation.html. Drugs and investigational agents were >95% pure by proton nuclear magnetic resonance (NMR) and liquid chromatography/mass spectrometry (LC/MS). Stock solutions were prepared at 400x in DMSO, stored at -70 degrees C, and diluted in fresh medium prior to their use. The final concentration of DMSO in cell culture wells never exceeded 0.25% (v/v). The FDA-approved anticancer drug set is available from the Developmental Therapeutics Program at https://dtp.cancer.gov/organization/dscb/obtaining/available_plates.htm. All drugs and investigational agents were tested over a range starting from a high concentration at or near the clinical Cmax and decreasing in half-log increments. If the clinical Cmax for an agent had not been determined, the highest concentration tested was 10 microM.
Cell Lines. The patient-derived cancer cell (PDC) lines: 292921-168-R-J2-PDC, K24384-001-R-PDC, and 521955-158-R2-J5-PDC pancreatic carcinomas, 556581-035-R-J1 ovarian carcinoma, 324938-238-R-J1-PDC, 855422-203-R-J1-PDC and 883617-216-R-J1-PDC urothelial bladder carcinomas, 743489-274-T-PDC renal cell carcinoma, 138582-R-J1 Merkel cell tumor, K60290-347-R-J1 and K57222-313-R-J1-PDC glioblastomas, 653999-131-R-J2-PDC, LG0703-F948-PDC, and 349418-098-R-PDC non-small cell lung carcinomas, 885512-296-R-J2-PDC, 171881-019-R-J1-PDC breast carcinomas and 186277-243-T-J2-PDC and 233499-124-R-J2-PDC colon carcinomas were obtained from the NCI Patient-Derived Models Repository (PDMR, https://pdmr.cancer.gov). The established cell lines NCI/ADR-RES (RRID:CVCL_14520 and OVCAR-5 (RRID:CVCL_1628) ovarian carcinomas, 786-O (RRID:CVCL_1051) and A498 (RRID:CVCL_A498) renal cell carcinoma, NCI-H211 (ATCC, cat. CRL-5824; RRID:CVCL_1529), NCI-H196 (ATCC, cat. CRL-5823, RRID:CVCL_1509), SW 1271 (ATCC, cat. CRL-2177, RRID:CVCL_1716) and NCI-H1876 (ATCC, cat. CRL-5902, RRID:CVCL_1503) small cell lung carcinomas, MDA-MB-231 (RRID:CVCL_0062) and MDA-MB-468 (RRID:CVCL_0419)breast carcinomas (10-12). Pooled donor human umbilical vein endothelial cells (HUVEC, Lonza, cat. CC-2519) and human mesenchymal stem cells (hMSC, Lonza, cat. PT-2501) were purchased from Lonza (Walkersville, MD).
Cell Culture. All cells were maintained in an incubator at 37 degrees C and 5% CO2 with 95% humidity. The PDC lines were cultured according to standard operating procedures established by the NCI PDMR (https://pdmr.cancer.gov). Briefly all PDCs were thawed and cultured in Matrigel-coated flasks prepared with a working solution of 1X Ham's F-12 nutrient mix, without supplementation (Invitrogen, Waltham, MA, cat. 11765054), 100 U/mL penicillin-streptomycin (Invitrogen, cat. 15140122), and 2.5% Matrigel (Corning Inc., Corning, NY, cat. 354248) for the first three passages. […]

[1] = second compound 0.1 µM, first compound 0.00316 µM
[2] = second compound 0.1 µM, first compound 0.01 µM
[3] = second compound 0.1 µM, first compound 0.0316 µM
[4] = second compound 0.1 µM, first compound 0.1 µM
[5] = second compound 0.316 µM, first compound 0.00316 µM
[6] = second compound 0.316 µM, first compound 0.01 µM
[7] = second compound 0.316 µM, first compound 0.0316 µM
[8] = second compound 0.316 µM, first compound 0.1 µM
[9] = second compound 1 µM, first compound 0.00316 µM
[10] = second compound 1 µM, first compound 0.01 µM
[11] = second compound 1 µM, first compound 0.0316 µM
[12] = second compound 1 µM, first compound 0.1 µM
[13] = second compound 3.16 µM, first compound 0.00316 µM
[14] = second compound 3.16 µM, first compound 0.01 µM
[15] = second compound 3.16 µM, first compound 0.0316 µM
[16] = second compound 3.16 µM, first compound 0.1 µM
[17] = second compound 10 µM, first compound 0.00316 µM
[18] = second compound 10 µM, first compound 0.01 µM
[19] = second compound 10 µM, first compound 0.0316 µM
[20] = second compound 10 µM, first compound 0.1 µM
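Also: spheroids exposed to agents for seven days.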
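For viability, T/C in this document: 100% = DMSO vehicle control wells.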

Compound: CC[C@@]1(O)C(=O)OCc2c1cc1n(c2=O)Cc2cc3c(CN(C)C)c(O)ccc3nc2-1 + NC1CC1c1ccc(-c2cccc(O)c2)cc1
- IC50 (second compound 0.1 µM): 5.86 nM
- IC50 (second compound 0.316 µM): 5.85 nM
- IC50 (second compound 1 µM): 5.62 nM
- IC50 (second compound 3.16 µM): 6.11 nM
- IC50 (second compound 10 µM): 5.17 nM
- viability, T/C (second compound 0.1 µM, first compound 0.000316 µM): 97.9%
- viability, T/C (second compound 0.1 µM, first compound 0.001 µM): 88.2%
- viability, T/C [1]: 67%
- viability, T/C [2]: 34.9%
- viability, T/C [3]: 16.6%
- viability, T/C [4]: 7.12%
- viability, T/C (second compound 0.316 µM, first compound 0.000316 µM): 95.5%
- viability, T/C (second compound 0.316 µM, first compound 0.001 µM): 104%
- viability, T/C [5]: 64.8%
- viability, T/C [6]: 34.5%
- viability, T/C [7]: 16.6%
- viability, T/C [8]: 6.13%
- viability, T/C (second compound 1 µM, first compound 0.000316 µM): 91.2%
- viability, T/C (second compound 1 µM, first compound 0.001 µM): 95.1%
- viability, T/C [9]: 68.4%
- viability, T/C [10]: 30.3%
- viability, T/C [11]: 13.3%
- viability, T/C [12]: 6.38%
- viability, T/C (second compound 3.16 µM, first compound 0.000316 µM): 103%
- viability, T/C (second compound 3.16 µM, first compound 0.001 µM): 96.1%
- viability, T/C [13]: 69.9%
- viability, T/C [14]: 34.7%
- viability, T/C [15]: 14.4%
- viability, T/C [16]: 6.43%
- viability, T/C (second compound 10 µM, first compound 0.000316 µM): 87.9%
- viability, T/C (second compound 10 µM, first compound 0.001 µM): 79.8%
- viability, T/C [17]: 59%
- viability, T/C [18]: 35.6%
- viability, T/C [19]: 20.7%
- viability, T/C [20]: 5.8%

Compound: COc1cc(C2c3cc4c(cc3C(OC3OC5COC(C)OC5C(O)C3O)C3COC(=O)C23)OCO4)cc(OC)c1O (stereo not given) + NC1CC1c1ccc(-c2cccc(O)c2)cc1
- IC50 (second compound 0.1 µM): 164 nM
- IC50 (second compound 0.316 µM): 116 nM
- IC50 (second compound 1 µM): 185 nM
- IC50 (second compound 3.16 µM): 316 nM
- IC50 (second compound 10 µM): 321 nM
- viability, T/C (second compound 0.1 µM, first compound 0.00949 µM): 92.1%
- viability, T/C (second compound 0.1 µM, first compound 0.03 µM): 76%
- viability, T/C (second compound 0.1 µM, first compound 0.0949 µM): 56.4%
- viability, T/C (second compound 0.1 µM, first compound 0.3 µM): 42.7%
- viability, T/C (second compound 0.1 µM, first compound 0.949 µM): 30.3%
- viability, T/C (second compound 0.1 µM, first compound 3 µM): 23.8%
- viability, T/C (second compound 0.316 µM, first compound 0.00949 µM): 87.8%
- viability, T/C (second compound 0.316 µM, first compound 0.03 µM): 75.6%
- viability, T/C (second compound 0.316 µM, first compound 0.0949 µM): 52.9%
- viability, T/C (second compound 0.316 µM, first compound 0.3 µM): 33.9%
- viability, T/C (second compound 0.316 µM, first compound 0.949 µM): 31%
- viability, T/C (second compound 0.316 µM, first compound 3 µM): 22.6%
- viability, T/C (second compound 1 µM, first compound 0.00949 µM): 90.4%
- viability, T/C (second compound 1 µM, first compound 0.03 µM): 79.6%
- viability, T/C (second compound 1 µM, first compound 0.0949 µM): 53.6%
- viability, T/C (second compound 1 µM, first compound 0.3 µM): 46.3%
- viability, T/C (second compound 1 µM, first compound 0.949 µM): 29.9%
- viability, T/C (second compound 1 µM, first compound 3 µM): 18.3%
- viability, T/C (second compound 3.16 µM, first compound 0.00949 µM): 89.5%
- viability, T/C (second compound 3.16 µM, first compound 0.03 µM): 72%
- viability, T/C (second compound 3.16 µM, first compound 0.0949 µM): 63.6%
- viability, T/C (second compound 3.16 µM, first compound 0.3 µM): 40.5%
- viability, T/C (second compound 3.16 µM, first compound 0.949 µM): 54.4%
- viability, T/C (second compound 3.16 µM, first compound 3 µM): 18.4%
- viability, T/C (second compound 10 µM, first compound 0.00949 µM): 83.6%
- viability, T/C (second compound 10 µM, first compound 0.03 µM): 77.8%
- viability, T/C (second compound 10 µM, first compound 0.0949 µM): 59.9%
- viability, T/C (second compound 10 µM, first compound 0.3 µM): 51.6%
- viability, T/C (second compound 10 µM, first compound 0.949 µM): 39.5%
- viability, T/C (second compound 10 µM, first compound 3 µM): 27.8%

Compound: Nc1ncn(C2CC(O)C(CO)O2)c(=O)n1 (stereo not given) + NC1CC1c1ccc(-c2cccc(O)c2)cc1
- IC50 (second compound 0.1 µM): > 1000 nM
- IC50 (second compound 0.316 µM): > 1000 nM
- IC50 (second compound 1 µM): > 1000 nM
- IC50 (second compound 3.16 µM): > 1000 nM
- IC50 (second compound 10 µM): > 1000 nM
- viability, T/C [1]: 78.6%
- viability, T/C [2]: 103%
- viability, T/C [3]: 76.2%
- viability, T/C [4]: 75.2%
- viability, T/C (second compound 0.1 µM, first compound 0.316 µM): 72.4%
- viability, T/C (second compound 0.1 µM, first compound 1 µM): 77.8%
- viability, T/C [5]: 103%
- viability, T/C [6]: 101%
- viability, T/C [7]: 77.5%
- viability, T/C [8]: 69.5%
- viability, T/C (second compound 0.316 µM, first compound 0.316 µM): 62.8%
- viability, T/C (second compound 0.316 µM, first compound 1 µM): 73.5%
- viability, T/C [9]: 94.4%
- viability, T/C [10]: 85.3%
- viability, T/C [11]: 97.4%
- viability, T/C [12]: 75.2%
- viability, T/C (second compound 1 µM, first compound 0.316 µM): 55.2%
- viability, T/C (second compound 1 µM, first compound 1 µM): 72.4%
- viability, T/C [13]: 108%
- viability, T/C [14]: 102%
- viability, T/C [15]: 89.4%
- viability, T/C [16]: 54.9%
- viability, T/C (second compound 3.16 µM, first compound 0.316 µM): 62.3%
- viability, T/C (second compound 3.16 µM, first compound 1 µM): 69.1%
- viability, T/C [17]: 98.8%
- viability, T/C [18]: 116%
- viability, T/C [19]: 90.7%
- viability, T/C [20]: 77.4%
- viability, T/C (second compound 10 µM, first compound 0.316 µM): 86%
- viability, T/C (second compound 10 µM, first compound 1 µM): 66.9%

— PubChem BioAssay AID1918938 (Molecular Pharmacology Branch, DTP, NCI, 2023)
